The results in this text go back to patent publication US8901118B2, “Compounds and methods for kinase modulation, and indications therefor” (Plexxikon Inc., priority 2010, dated 2014).

One experiment concerns SKNSH cells. The experiment in a line: SKNSH (human neuroblastoma) cell proliferation assay (ATPlite). The format is cell-based. The following applies: SK-N-SH, read-out: Inhibition of Cell Proliferation IC50, SKNSH. On the procedure: Compounds are assessed in a variety of cell based assays. For example BaF3 cells engineered with any of BCR-FMS, BCR-KIT, BCR-FLT3, BCR-NTRK1, BCR-NTRK2, and BCR-NTRK3, are used in cell proliferation assays to assess inhibitory activity of Fms, Kit, Flt-3, TrkA, TrkB, and TrkC, respectively. An MV-4-11 (leukemia) cell proliferation assay is used to assess inhibitory activity in Flt-3, and SKNSH (human neuroblastoma) cell proliferation assay is used to assess efficacy of Fms/Trk inhibitors. Additional cells may be assayed similarly to assess the efficacy of Fms/Trk inhibitors, such as MiaPaCa (human pancreatic cancer) and Capan-1 (human pancreatic carcinoma) cells. Reagent and assay conditions are as follows: • BaF3 cells: • Maintained in RPMI containing 10% FBS, 1% PenStrep, 1% NEAA, and 1% L-Glutamine, supplemented with 1 mg/mL G418 and 5% WEHI-CM (or recombinant murine IL-3). • Confluent cells are split 1:50 to 1:100 every 3-4 days. • MV-4-11 cells: • Maintained in Iscove's Modified Dulbecco's Medium containing 10% FBS. • Confluent cells are split 1:4 every 3-4 days. • SKNSH cells: RPMI containing 10% FBS. On day 1, cells are counted, then centrifuged in a conical tube for 5 minutes at 1000 rpm. The supernatant is removed and cells are re-suspended as follows: • BaF3: resuspend in growth media +1 mg/mL G418 (without WEHFIL-3) to 2×10^5 cells/mL. • MV-4-11: resuspend in growth media to 5×10^5 cells/mL. • SKNSH: resuspend in growth media to 2×10^4 cells/mL. The cells are plated (50 μL, 150 μL for SKNSH cells) in each well of a 96-well dish (Corning 3610) and incubated at 37° C. in 5% CO2 overnight, cells plated to a final concentration of cells as follows: • BaF3: 10,000 cells per well. • MV-4-11: 25,000 cells per well. • SKNSH: 3,000 cells per well. On day 2, compound at a maximum concentration of 5 mM is serially diluted 1:3 for a total of 8 point titration with DMSO as a control. A 1 μL aliquot of each dilution point is added to 249 μL growth media and 50 μL is added to a well containing cells, providing 10 μM compound for the maximum concentration point. The cells are incubated for 3 days at 37° C. in 5% CO2. For SKNSH cells, a 0.75 μL aliquot of appropriate dilution in DMSO is added to 150 μL of cells. On day 5, ATPlite 1 step Luminescence Assay System (Perkin Elmer #6016739) is brought to room temperature along with the cell cultures. ATPlite is added to each well as follows: • BaF3: 25 μL per well. • MV-4-11: 40 μL per well. • SKNSH: 20 μL per well. The cells are incubated at room temperature for 10 minutes, then luminescence is read on Safire reader. The measured luminescence correlates directly with cell number, such that the reading as a function of compound concentration is used to determine the IC50 value.
It is understood that the results of these assays may vary as assay conditions are varied. Inhibition levels determined under the conditions described herein represent a relative activity for the compounds tested under the specific conditions employed. The cell based assays are likely to show variability due to the complexity of the system and the sensitivity thereof to any changes in the assay conditions. […] Results for compounds that are tested and show substantially no inhibition below the highest tested concentration are represented as “-” in the tables below. In some instances, the compounds were not tested in all of the assays, or assay results were not valid, as indicated by NA in the tables below.
(In general: Cellular ATP, detected with luciferase, serves as a proxy for viable cell number.)

A further experiment concerns the target T1, CYP1A2 (Homo sapiens, UniProt P05177).
T1 sequence (P05177 1-516): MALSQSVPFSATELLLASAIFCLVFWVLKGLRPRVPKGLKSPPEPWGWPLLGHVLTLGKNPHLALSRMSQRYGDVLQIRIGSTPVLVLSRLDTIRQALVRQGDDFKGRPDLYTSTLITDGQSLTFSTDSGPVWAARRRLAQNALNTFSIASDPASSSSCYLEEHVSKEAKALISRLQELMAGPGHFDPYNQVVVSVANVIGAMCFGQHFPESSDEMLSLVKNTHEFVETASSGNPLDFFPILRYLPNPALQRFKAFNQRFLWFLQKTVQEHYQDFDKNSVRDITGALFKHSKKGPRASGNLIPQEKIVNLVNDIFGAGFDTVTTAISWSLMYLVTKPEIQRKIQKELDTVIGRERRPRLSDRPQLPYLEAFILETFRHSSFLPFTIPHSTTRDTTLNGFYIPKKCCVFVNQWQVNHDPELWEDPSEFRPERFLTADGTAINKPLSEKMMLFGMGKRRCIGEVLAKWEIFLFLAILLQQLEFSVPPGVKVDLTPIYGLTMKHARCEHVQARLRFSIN
The experiment in a line: CYP1A2 inhibition (fluorescent substrate CEC). Conditions: read-out: Cyp IC50 1A2. The class given is in vitro ADME. On the procedure:
CYP (Cytochrome P450) enzymes are the major drug metabolizing enzymes present in the liver. The inhibition of CYP enzyme activity (IC50) for each of CYP1A2, CYP2C19, CYP2C9, CYP2D6, CYP3A4(BFC) and CYP3A4(BQ) is determined for compounds, where inhibition of metabolism of a known substrate leads to a decrease in the fluorescence of the metabolized product. The fluorescence of the product is monitored as a function of compound concentration. Compounds are dissolved in DMSO to a concentration of 100 mM. These are diluted 1 μL into 82 μL of acetonitrile. An 11 μL aliquot of this solution is then added to 204 μL of cofactor mix (1.3% NADPH Regeneration system Solution A, 1.04% NADPH Regeneration system Solution B from BD Biosciences, 5% acetonitrile and 0.05% DMSO). These are then serially diluted 1:1 (160 μL to 160 μL co-factor mix) for a total of 10 points. A 10 μL aliquot of this final mixture is dispensed into 384 well assay plates and incubated for 10 minutes at 37° C. […] Assay plates are incubated at 37° C. (CYP1A2-15 min; CYP2C9-45 min; CYP2C19, 2D6 and 3A4-30 min) and read in a Tecan Safire 2 plate reader (CYP1A2, 2C19 and 3A4 409 ex/460 em; CYP2C9 and 2D6 409 ex/530 em). The signal versus compound concentration is used to determine the IC50. The enzymes and substrates for this assay are obtained from BD Biosciences.

In the case of `COc1ccc(Nc2ccc(C(=O)c3c[nH]c4ncnc(NC(C)(C)C)c34)c(F)n2)cn1` [Compound P-4055, [4-(tert-butylamino)-7H-pyrrolo[2,3-d]pyrimidin-5-yl]-[2-fluoro-6-[(6-methoxy-3-pyridyl)amino]-3-pyridyl]methanone], the figures for the IC50 in the experiment with SKNSH cells and on CYP1A2 were < 1 µM and < 10 µM, respectively. On to `COc1ccc(Nc2ccc(C(=O)c3c[nH]c4ncnc(NC5CCC(F)(F)CC5)c34)c(F)n2)cn1` [Compound P-4056, [4-[(4,4-difluorocyclohexyl)amino]-7H-pyrrolo[2,3-d]pyrimidin-5-yl]-[2-fluoro-6-[(6-methoxy-3-pyridyl)amino]-3-pyridyl]methanone], for which the IC50 in the experiment on SKNSH cells is < 1 µM; on CYP1A2, > 10 µM. With `O=C(c1ccc(NC2CCC(F)(F)CC2)nc1Cl)c1c[nH]c2ncnc(NCC(F)(F)F)c12` [Compound P-4057, [2-chloro-6-[(4,4-difluorocyclohexyl)amino]-3-pyridyl]-[4-(2,2,2-trifluoroethylamino)-7H-pyrrolo[2,3-d]pyrimidin-5-yl]methanone], the figures for the IC50 in the experiment with SKNSH cells and on CYP1A2 were < 10 µM and > 10 µM, respectively. On to `CNc1ncnc2[nH]cc(C(=O)c3ccc(NC4CCC(F)(F)CC4)nc3Cl)c12` [Compound P-4058, [2-chloro-6-[(4,4-difluorocyclohexyl)amino]-3-pyridyl]-[4-(methylamino)-7H-pyrrolo[2,3-d]pyrimidin-5-yl]methanone], for which the IC50 was < 10 µM in the experiment on SKNSH cells and > 10 µM on CYP1A2. `O=C(c1ccc(NC2CCC(F)(F)CC2)nc1)c1c[nH]c2ncnc(NC3CC3)c12` [Compound P-4088, [4-(cyclopropylamino)-7H-pyrrolo[2,3-d]pyrimidin-5-yl]-[6-[(4,4-difluorocyclohexyl)amino]-3-pyridyl]methanone]: at CYP1A2, the IC50 was > 10 µM.

Consider `O=C(c1ccc(Nc2ccc(C3CC3)nc2)nc1F)c1c[nH]c2ncnc(NC3CC3)c12` [Compound P-4093, [4-(cyclopropylamino)-7H-pyrrolo[2,3-d]pyrimidin-5-yl]-[6-[(6-cyclopropyl-3-pyridyl)amino]-2-fluoro-3-pyridyl]methanone], for which the IC50 on CYP1A2 is > 10 µM. Still for that read-out and setting: then `Cc1ccc(Nc2ccc(C(=O)c3c[nH]c4ncnc(NC5CCCCC5)c34)c(F)n2)cn1` [Compound P-4111, [4-(cyclohexylamino)-7H-pyrrolo[2,3-d]pyrimidin-5-yl]-[2-fluoro-6-[(6-methyl-3-pyridyl)amino]-3-pyridyl]methanone], with > 10 µM; and `Cc1ccc(Nc2ccc(C(=O)c3c[nH]c4ncnc(NCC5CC5)c34)c(F)n2)cn1` [Compound P-4113, [4-(cyclopropylmethylamino)-7H-pyrrolo[2,3-d]pyrimidin-5-yl]-[2-fluoro-6-[(6-methyl-3-pyridyl)amino]-3-pyridyl]methanone], with > 10 µM; and `CCCNc1ncnc2[nH]cc(C(=O)c3ccc(Nc4ccc(C)nc4)nc3F)c12` [Compound P-4114, [2-fluoro-6-[(6-methyl-3-pyridyl)amino]-3-pyridyl]-[4-(propylamino)-7H-pyrrolo[2,3-d]pyrimidin-5-yl]methanone], with > 10 µM.

Turning to `CNc1ncnc2[nH]cc(C(=O)c3ccc(Nc4ccc(C)nc4)nc3F)c12` [Compound P-4115, [2-fluoro-6-[(6-methyl-3-pyridyl)amino]-3-pyridyl]-[4-(methylamino)-7H-pyrrolo[2,3-d]pyrimidin-5-yl]methanone], on CYP1A2, the IC50 is < 5 µM. In the case of `CCc1ccc(Nc2ccc(C(=O)c3c[nH]c4ncnc(NC5CCOCC5)c34)c(F)n2)cn1` [Compound P-4116, [6-[(6-ethyl-3-pyridyl)amino]-2-fluoro-3-pyridyl]-[4-(tetrahydropyran-4-ylamino)-7H-pyrrolo[2,3-d]pyrimidin-5-yl]methanone], the IC50 at CYP1A2 is > 10 µM. On to `CCc1ccc(Nc2ccc(C(=O)c3c[nH]c4ncnc(NC(C)C)c34)c(F)n2)cn1` [Compound P-4117, [6-[(6-ethyl-3-pyridyl)amino]-2-fluoro-3-pyridyl]-[4-(isopropylamino)-7H-pyrrolo[2,3-d]pyrimidin-5-yl]methanone], for which, on CYP1A2, the IC50 was in the range of 5 to 10 µM. Turning to `CCc1ccc(Nc2ccc(C(=O)c3c[nH]c4ncnc(NCC5CC5)c34)c(F)n2)cn1` [Compound P-4118, [4-(cyclopropylmethylamino)-7H-pyrrolo[2,3-d]pyrimidin-5-yl]-[6-[(6-ethyl-3-pyridyl)amino]-2-fluoro-3-pyridyl]methanone], the IC50 at CYP1A2 was > 10 µM.

Take `CCc1ccc(Nc2ccc(C(=O)c3c[nH]c4ncnc(NCCOC)c34)c(F)n2)cn1` [Compound P-4119, [6-[(6-ethyl-3-pyridyl)amino]-2-fluoro-3-pyridyl]-[4-(2-methoxyethylamino)-7H-pyrrolo[2,3-d]pyrimidin-5-yl]methanone]: the IC50 on CYP1A2 was > 10 µM. `CCc1ccc(Nc2ccc(C(=O)c3c[nH]c4ncnc(NCC(C)C)c34)c(F)n2)cn1` [Compound P-4121, [6-[(6-ethyl-3-pyridyl)amino]-2-fluoro-3-pyridyl]-[4-(isobutylamino)-7H-pyrrolo[2,3-d]pyrimidin-5-yl]methanone]: on CYP1A2, the IC50 is > 10 µM. With `CCCNc1ncnc2[nH]cc(C(=O)c3ccc(Nc4ccc(CC)nc4)nc3F)c12` [Compound P-4122, [6-[(6-ethyl-3-pyridyl)amino]-2-fluoro-3-pyridyl]-[4-(propylamino)-7H-pyrrolo[2,3-d]pyrimidin-5-yl]methanone], the IC50 on CYP1A2 was > 10 µM. Take `CCc1ccc(Nc2ccc(C(=O)c3c[nH]c4ncnc(NC5CC5)c34)c(F)n2)cn1` [Compound P-4125, [4-(cyclopropylamino)-7H-pyrrolo[2,3-d]pyrimidin-5-yl]-[6-[(6-ethyl-3-pyridyl)amino]-2-fluoro-3-pyridyl]methanone]: the IC50 at CYP1A2 is > 10 µM.
